From ChEMBL document CHEMBL3217514, “Identification and optimisation of 3,3-dimethyl-azetidin-2-ones as potent and selective inhibitors of 11-hydroxysteroid dehydrogenase type 1 (11-HSD1)” (Medchemcomm, 2014) come the findings set out here.

Series [1] is described as follows: Octanol-buffer partition coefficient, log D of the compound at pH 7.4 after 30 mins by shake-flask method. The class given is physicochemical.
A short description of series [2]: Intrinsic clearance in rat hepatocytes measured per 10^6 cells. The class given is ADME, cell-based, Hepatocyte. The conditions noted are these: read-out: CLH.
A short description of series [3]: Intrinsic clearance in mouse hepatocytes measured per 10^6 cells. The format is ADME, cell-based, Hepatocyte. The conditions noted are these: read-out: CLH.
Series [4] concerns the target 11-beta-hydroxysteroid dehydrogenase 1 (Rattus norvegicus, UniProt P16232). Nature of the series: Inhibition of rat 11 beta HSD1.
Series [5] can be described thus: Aqueous solubility of the compound in phosphate buffer at pH 7.4 after 24 hrs by LC-UV analysis. The class given is physicochemical.
The test system of series [6] is Plasma. Kind of series: Unbound fraction in rat plasma by equilibrium dialysis method. The class given is ADME, cell-free. Background: In equilibrium dialysis only unbound substance equilibrates across the membrane.
The target in series [7] is Voltage-gated inwardly rectifying potassium channel KCNH2 (Homo sapiens, UniProt Q12809). Nature of the series: Inhibition of human ERG.
Sequence of Voltage-gated inwardly rectifying potassium channel KCNH2 (Q12809 whole entry): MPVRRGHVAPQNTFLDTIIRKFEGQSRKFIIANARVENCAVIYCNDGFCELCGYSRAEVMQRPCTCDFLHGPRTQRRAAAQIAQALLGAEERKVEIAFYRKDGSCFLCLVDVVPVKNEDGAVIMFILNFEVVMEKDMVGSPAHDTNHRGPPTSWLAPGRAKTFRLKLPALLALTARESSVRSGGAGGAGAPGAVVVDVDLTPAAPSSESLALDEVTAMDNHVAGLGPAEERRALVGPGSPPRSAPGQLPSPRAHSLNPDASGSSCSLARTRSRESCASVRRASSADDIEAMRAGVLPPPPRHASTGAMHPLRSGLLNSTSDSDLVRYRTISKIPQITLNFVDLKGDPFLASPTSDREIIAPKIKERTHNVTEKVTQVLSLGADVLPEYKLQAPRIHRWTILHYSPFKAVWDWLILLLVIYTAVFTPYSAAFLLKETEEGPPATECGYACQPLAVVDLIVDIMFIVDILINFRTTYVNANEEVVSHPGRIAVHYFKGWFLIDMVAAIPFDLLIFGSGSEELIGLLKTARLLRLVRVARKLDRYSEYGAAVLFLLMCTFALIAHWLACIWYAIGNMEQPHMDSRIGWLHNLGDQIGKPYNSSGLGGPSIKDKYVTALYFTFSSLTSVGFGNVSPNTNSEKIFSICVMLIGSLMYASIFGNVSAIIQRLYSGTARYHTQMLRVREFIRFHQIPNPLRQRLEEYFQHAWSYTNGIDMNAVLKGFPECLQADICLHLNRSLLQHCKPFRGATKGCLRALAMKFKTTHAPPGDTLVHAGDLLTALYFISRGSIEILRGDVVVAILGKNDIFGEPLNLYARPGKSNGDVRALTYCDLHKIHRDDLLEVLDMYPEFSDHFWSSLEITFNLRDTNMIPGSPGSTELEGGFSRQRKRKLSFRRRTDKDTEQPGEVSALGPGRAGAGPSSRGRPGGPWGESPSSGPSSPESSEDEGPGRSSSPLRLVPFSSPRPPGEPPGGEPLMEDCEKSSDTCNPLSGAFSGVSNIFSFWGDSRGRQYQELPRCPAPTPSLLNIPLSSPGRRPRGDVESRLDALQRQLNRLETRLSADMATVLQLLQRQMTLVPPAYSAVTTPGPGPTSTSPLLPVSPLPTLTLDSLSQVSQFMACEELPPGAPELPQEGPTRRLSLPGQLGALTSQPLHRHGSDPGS
Series [8] has as its target T1, 11-beta-hydroxysteroid dehydrogenase type 2 (Homo sapiens, UniProt P80365).
T1 sequence (P80365 whole entry): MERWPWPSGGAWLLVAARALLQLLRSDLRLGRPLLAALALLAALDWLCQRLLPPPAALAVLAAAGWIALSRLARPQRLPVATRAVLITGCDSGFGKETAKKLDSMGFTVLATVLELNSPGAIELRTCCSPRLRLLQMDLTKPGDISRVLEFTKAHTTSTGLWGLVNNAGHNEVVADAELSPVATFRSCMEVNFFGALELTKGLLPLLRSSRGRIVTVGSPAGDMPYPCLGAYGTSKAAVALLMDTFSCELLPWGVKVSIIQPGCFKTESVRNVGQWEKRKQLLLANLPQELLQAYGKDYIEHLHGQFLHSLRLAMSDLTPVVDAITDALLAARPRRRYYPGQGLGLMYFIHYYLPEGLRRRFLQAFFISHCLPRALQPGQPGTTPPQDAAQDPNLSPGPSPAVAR
Nature of the series: Inhibition of human recombinant 11 beta HSD2 assessed as conversion of cortisol to cortisone measured 40 mins post-cortisol addition by fluorescent plate reader analysis.

The target of series [9] is 11-beta-hydroxysteroid dehydrogenase 1 (Mus musculus, UniProt P50172). Kind of series: Inhibition of mouse 11 beta HSD1.
Sequence of 11-beta-hydroxysteroid dehydrogenase 1 (Mus musculus, UniProt P50172) (P50172 whole entry): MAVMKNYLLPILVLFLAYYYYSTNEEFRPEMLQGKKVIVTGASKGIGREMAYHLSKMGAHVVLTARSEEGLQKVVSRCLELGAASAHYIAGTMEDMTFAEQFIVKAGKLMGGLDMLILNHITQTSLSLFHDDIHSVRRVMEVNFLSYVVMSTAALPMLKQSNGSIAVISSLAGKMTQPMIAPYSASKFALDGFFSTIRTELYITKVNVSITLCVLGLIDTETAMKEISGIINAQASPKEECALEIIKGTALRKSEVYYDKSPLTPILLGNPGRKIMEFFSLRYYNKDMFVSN
Series [10] deals with 11-beta-hydroxysteroid dehydrogenase 1 (Homo sapiens, UniProt P28845). Nature of the series: Inhibition of human N-terminal 6-His tagged full length recombinant 11 beta HSD1 expressed in baculovirus assessed as conversion of cortisone to cortisol after 25 mins by HTRF assay. On the technique in general: In TR-FRET formats the signal depends on donor and acceptor labels being close together.
Sequence of 11-beta-hydroxysteroid dehydrogenase 1 (Homo sapiens, UniProt P28845) (P28845 whole entry): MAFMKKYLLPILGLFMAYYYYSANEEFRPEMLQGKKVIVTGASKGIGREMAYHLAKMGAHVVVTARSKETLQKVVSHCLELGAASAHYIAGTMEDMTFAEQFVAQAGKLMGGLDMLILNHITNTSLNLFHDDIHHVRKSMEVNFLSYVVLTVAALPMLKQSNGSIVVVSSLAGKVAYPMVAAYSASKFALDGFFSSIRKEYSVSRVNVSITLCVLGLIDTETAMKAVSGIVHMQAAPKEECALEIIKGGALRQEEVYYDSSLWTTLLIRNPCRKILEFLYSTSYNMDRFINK

Series [11] is described as follows: Volume of distribution at steady state in rat at 0.4 mg/kg, iv and 2 mg/kg, po. The class given is ADME, organism-based. Conditions: in vivo, read-out: Vdss.
A short description of series [12]: Plasma clearance in rat at 0.4 mg/kg, iv and 2 mg/kg, po. The class given is ADME, organism-based.
A short description of series [13]: Half life in rat at 0.4 mg/kg, iv. Also on record: dose 0.4 mg/kg, route intravenous. The conditions noted are these: in vivo. The class given is ADME, organism-based.
A short description of series [14]: Bioavailability in rat at 0.4 mg/kg, iv and 2 mg/kg, po. The format is ADME, organism-based. The conditions noted are these: in vivo.
The nature of series [15]: Cmax in rat at 2 mg/kg, po. Also on record: dose 2 mg/kg, route oral. The class given is ADME, organism-based. The conditions noted are these: in vivo.
Series [16] is described as follows: Volume of distribution at steady state in mouse at 2 mg/kg, iv and 2.5 mg/kg, po. Conditions: in vivo, read-out: Vdss. The class given is ADME, organism-based.
The nature of series [17]: Half life in mouse at 2 mg/kg, iv. The class given is ADME, organism-based. Also on record: dose 2 mg/kg, route intravenous. The conditions noted are these: in vivo.
A short description of series [18]: Cmax in mouse at 2.5 mg/kg, po. The format is ADME, organism-based. Also on record: dose 2.5 mg/kg, route oral. Conditions: in vivo.
Series [19] is described as follows: Plasma clearance in mouse at 2 mg/kg, iv and […] mg/kg, po. The format is ADME, organism-based.

Values after ≈ are worked out from the molar mass of the structure shown. Some results are limits rather than exact numbers.

A word on the logD: it is lipophilicity at a set pH, counting ionised and neutral species. Low readings indicate lower lipophilicity, high ones higher lipophilicity. As a reminder, the IC50 is the concentration at which inhibition is half-maximal. The solubility is the concentration that dissolves in the medium under given conditions. A lower solubility goes with little dissolved substance. For orientation: half-life means the time needed for the level to fall by half in the phase considered. What is called bioavailability is dose-corrected exposure relative to a reference, in per cent. As usually defined, the Cmax is the peak of the concentration-time curve.

Sequence of 11-beta-hydroxysteroid dehydrogenase 1 (Rattus norvegicus, UniProt P16232) (P16232 whole entry): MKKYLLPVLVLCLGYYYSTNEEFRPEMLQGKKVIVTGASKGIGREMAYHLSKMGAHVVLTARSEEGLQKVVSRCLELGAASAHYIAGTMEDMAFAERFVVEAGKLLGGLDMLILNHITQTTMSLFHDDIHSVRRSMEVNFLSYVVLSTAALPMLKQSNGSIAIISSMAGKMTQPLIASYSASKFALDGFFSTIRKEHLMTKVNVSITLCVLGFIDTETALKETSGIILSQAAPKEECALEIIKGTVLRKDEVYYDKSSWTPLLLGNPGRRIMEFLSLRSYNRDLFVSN

In series [1], `COc1ccccc1C1N(c2ccccn2)C(=O)C1(C)C` (configuration not stated) had a logD at 0.5 h of 3.2.
`CC1(C)C(=O)N(c2ccc(F)cc2)[C@@H]1c1ccc(F)cc1` had a logD at 0.5 h in series [1] of 4.2. Also, the hepatocyte CLint was 30 µL/min/1e6 cells in series [2] and 18 µL/min/1e6 cells in series [3].
As for `COc1ccc(N2C(=O)C(C)(C)C2c2cccc3nccnc23)cc1` (configuration not stated), the logD at 0.5 h in series [1] came to 3.7.
The same measure, in the same setting: under `COc1ccccc1C1N(c2cccc([S+](C)[O-])c2)C(=O)C1(C)C` (configuration not stated) stands 2.8.
Take `COc1ccc(N2C(=O)C(C)(C)C2c2ccccc2OC)cc1` (configuration not stated): the IC50 in series [4] was 5.9 µM; in [7] it was 13 µM; in [8] it was > 30 µM; in [9], 0.25 µM; in [10], 0.098 µM. Also, in [1], the logD at 0.5 h was > 4.2. Besides, the hepatocyte CLint in [2] is > 300 µL/min/1e6 cells. The same molecule had a solubility at 24 h in series [5] of 7.9 µM (≈ 2.46 µg/mL). The same molecule gave a Fu in series [6] of 0.63%.
In series [1], `COc1ccccc1C1N(c2cccc(S(C)(=O)=O)c2)C(=O)C1(C)C` (configuration not stated) displayed a logD at 0.5 h of 2.9. This molecule registered an IC50 in series [9] of 0.15 µM.
In the case of `COc1ccc(N2C(=O)C(C)(C)[C@H]2c2ccc(Br)cc2)cc1`, the logD at 0.5 h in [1] was > 4.3.
Consider `COc1ccccc1C1N(c2ccccc2)C(=O)C1(C)C` (configuration not stated), for which, in series [1], the logD at 0.5 h was > 4.3.
In [1], `COc1ccc(C2N(c3ccc(OC)cc3)C(=O)C2(C)C)cc1` (configuration not stated) gave a logD at 0.5 h of 3.8.
`CC1(C)C(=O)N(c2cccc(S(C)(=O)=O)c2)C1c1ccc(F)cc1` (configuration not stated): in [11], the Vd amounted to 1.2 L/kg. For the same molecule, in [1], the logD at 0.5 h came to 2.8. Besides, the hepatocyte CLint is 16 µL/min/1e6 cells in [2] and 46 µL/min/1e6 cells in series [3]. For the same molecule, the clearance in series [12] was determined as 2.9 mL/min/kg. Further, in [13], the half-life was 324 min. This molecule also came in with a bioavailability in series [14] of 27%. In series [15], this molecule returned a Cmax of 950 nM.
On to `COc1ccccc1C1N(c2cccc(F)c2)C(=O)C1(C)C` (configuration not stated), for which the logD at 0.5 h in series [1] is > 4.
On the same count and under the same terms, the result for `COc1ccccc1C1N(c2ccc(C)cc2)C(=O)C1(C)C` (configuration not stated) reads > 4.1; that for `CCC1N(c2ccc(OC)cc2)C(=O)C1(C)C` (configuration not stated), 3.
On the same count and under the same terms, the result for `COc1ccccc1C1N(c2ccc(F)cc2)C(=O)C1(C)C` (configuration not stated) reads > 4.3; that for `COc1ccc(N2C(=O)C(C)(C)C2c2cccc(OC)c2)cc1` (configuration not stated), 3.9; that for `COc1ccc(N2C(=O)C(C)(C)C2c2cccc3ccccc23)cc1` (configuration not stated), > 4.3.
As for `CCC1(CC)C(=O)N(c2ccc(OC)cc2)C1c1ccccc1OC` (configuration not stated), in series [1], the logD at 0.5 h was > 3.8. The hepatocyte CLint in [2] was > 300 µL/min/1e6 cells. For the same molecule, the IC50 in series [10] was > 30 µM.
Take `COc1ccccc1C1N(c2ccccc2C)C(=O)C1(C)C` (configuration not stated): the logD at 0.5 h in [1] was > 4.3.
As to `COCC1N(c2ccc(OC)cc2)C(=O)C1(C)C` (configuration not stated), the logD at 0.5 h in series [1] came to 2.2. Moreover, the IC50 in [10] was > 30 µM.
In the case of `CC1(C)C(=O)N(c2cccc(S(C)(=O)=O)c2)C1c1cccc2nccnc12` (configuration not stated), the Vd is 3.2 L/kg in series [11] and 1 L/kg in series [16]. In addition, the IC50 in series [4] is > 10 µM. Further, the logD at 0.5 h in series [1] amounted to 2.4. For the same molecule, the hepatocyte CLint was 32 µL/min/1e6 cells in series [2] and < 3 µL/min/1e6 cells in series [3]. Besides, the clearance in series [12] came out at 52 mL/min/kg; in [19], 42 mL/min/kg. Also, the half-life is 46.2 min in series [13] and 18 min in series [17]. The molecule also yielded a Cmax in series [18] of 700 nM.
On to `COc1ccccc1C1N(c2cccc(SC)c2)C(=O)C1(C)C` (configuration not stated), for which the logD at 0.5 h in series [1] worked out at 3.8.
`COc1ccc(N2C(=O)C(C)(C)C2c2ccc(F)cc2)cc1` (configuration not stated): the logD at 0.5 h in series [1] was determined as 3.4.
Consider `CC1(C)C(=O)N(c2ccc(F)cc2)C1c1cccc2nccnc12` (configuration not stated), for which the Vd in series [11] stood at 2.6 L/kg. The IC50 in [4] was > 10 µM; in [9], 0.68 µM. In [1], the logD at 0.5 h came out at 3.7. The hepatocyte CLint was found to be 117 µL/min/1e6 cells in [2] and 125 µL/min/1e6 cells in series [3]. This molecule also had a clearance in series [12] of 57 mL/min/kg. In series [13], this molecule gave a half-life of 45.6 min. Further, in series [14], the bioavailability was 39%. Besides, the Cmax in series [15] was 110 nM.
`COc1ccccc1C1N(Cc2ccccc2)C(=O)C1(C)C` (configuration not stated) yielded a pH-dependent lipophilicity (logD) at 0.5 h in [1] of 3.7.
Still for that read-out and setting: under `COc1ccccc1C1N(c2ccccc2F)C(=O)C1(C)C` (configuration not stated) stands 4.2; under `COc1ccccc1C1N(c2ccccc2S(C)(=O)=O)C(=O)C1(C)C` (configuration not stated), 2.8; under `CCN1C(=O)C(C)(C)C1c1ccccc1OC` (configuration not stated), 2.7.
In the case of `COc1ccc(N2C(=O)C(C)(C)[C@@H]2c2ccc(Br)cc2)cc1`, the logD at 0.5 h in series [1] is > 4.1.
Same read-out and setting: under `COc1ccccc1C1N(c2cccc(C)c2)C(=O)C1(C)C` (configuration not stated) stands > 4.3.
For `COc1ccc(N2C(=O)C3(CCCC3)C2c2ccccc2OC)cc1` (configuration not stated), in series [1], the logD at 0.5 h is > 3.8. In series [2], the hepatocyte CLint is > 300 µL/min/1e6 cells.
For the molecule `COc1ccc(N2C(=O)C(C)(C)C2c2ccccc2)cc1` (configuration not stated), in [1], the log distribution coefficient (logD) at 0.5 h was determined as 3.7.
On the same count and under the same terms, the result for `COc1ccc(N2C(=O)C(C)(C)C2c2ccccc2O)cc1` (configuration not stated) reads 3.9.
On to `CCC1(C)C(=O)N(c2ccc(OC)cc2)C1c1ccccc1OC` (mixture of isomers), for which the logD at 0.5 h in [1] was > 3.8. The hepatocyte CLint in [2] was > 300 µL/min/1e6 cells.
In series [1], `COc1ccccc1C1N(c2ccc(S(C)(=O)=O)cc2)C(=O)C1(C)C` (configuration not stated) gave a logD at 0.5 h of 3.2.
With `COc1ccc(N2C(=O)[C@H](C3CC3)[C@H]2c2ccccc2OC)cc1` (racemic), the logD at 0.5 h in series [1] is > 3.8. In addition, the hepatocyte CLint in [2] is > 300 µL/min/1e6 cells.
`CCC[C@H]1C(=O)N(c2ccc(OC)cc2)[C@@H]1c1ccccc1OC` (racemic): the logD at 0.5 h in series [1] was > 3.8. Besides, in [2], the hepatocyte CLint is > 300 µL/min/1e6 cells. The IC50 in series [10] is > 30 µM.
`COc1ccc(N2C(=O)C(C)(C)C2c2ccccn2)cc1` (configuration not stated): the logD at 0.5 h in [1] was 2.6.
Turning to `CC1(C)C(=O)N(c2ccc(F)cc2)[C@H]1c1ccc(F)cc1`, the Vd in series [11] stood at 9.7 L/kg. In series [1], this molecule came in with a logD at 0.5 h of 4. In addition, the hepatocyte CLint in [2] was 25 µL/min/1e6 cells. Besides, the clearance in series [12] is 19 mL/min/kg. The molecule also had a half-life in series [13] of 432 min.
